Tests used:
[1] = logP by HPLC, reversed-phase column (C 18), EEC Directive 79/831 Annex V.A8; type: physicochemical; settings: reversed-phase HPLC column (C 18), acidic range pH 2.3, 0.1% aqueous phosphoric acid/acetonitrile gradient, 43° C.
Method: The logP values given in the preparation examples and tables above are determined in accordance with EEC Directive 79/831 Annex V.A8 by HPLC (High Performance Liquid Chromatography) using a reversed-phase column (C 18). Temperature: 43° C. The determination is carried out in the acidic range at pH 2.3 using the mobile phases 0.1% aqueous phosphoric acid and acetonitrile; linear gradient from 10% acetonitrile to 90% acetonitrile. The calibration is carried out using unbranched alkan-2-ones (having 3 to 16 carbon atoms), with known logP values (determination of the logp values by the retention times using linear interpolation between two successive alkanones).

[2] = tested on: Pyrenophora teres; assay: Pyrenophora teres test (barley)/protective; type: in vivo; settings: protective, application rate 250 g/ha, evaluation 7 days after inoculation
Method: To produce a suitable preparation of active compound, 1 part by weight of active compound is mixed with the stated amount of solvent and emulsifier, and the concentrate is diluted with water to the desired concentration.
To test for protective activity, young plants are sprayed with the preparation of active compound at the stated application rate. After the spray coating has dried on, the plants are sprayed with a conidia suspension of Pyrenophora teres. The plants remain in an incubation cabin at 20° C. and 100% relative atmospheric humidity for 48 hours.
The plants are then placed in a greenhouse at a temperature of about 20° C. and a relative atmospheric humidity of about 80%.
Evaluation is carried out 7 days after the inoculation. 0% means an efficacy which corresponds to that of the control, whereas an efficacy of 100% means that no infection is observed.

[3] = tested on: Podosphaera leucotricha; assay: Podosphaera test (apple)/protective; type: in vivo; settings: protective, application rate 100 g/ha, evaluation 10 days after inoculation
Method: (§1) To produce a suitable preparation of active compound, 1 part by weight of active compound is mixed with the stated amounts of solvent and emulsifier, and the concentrate is diluted with water to the desired concentration.
To test for protective activity, young plants are sprayed with the preparation of active compound at the stated application rate. After the spray coating has dried on, the plants are inoculated with an aqueous spore suspension of the apple mildew pathogen Podosphaera leucotricha. The plants are then placed in a greenhouse at about 23° C. and a relative atmospheric humidity of about 70%.
Evaluation is carried out 10 days after the inoculation. 0% means an efficacy which corresponds to that of the control, whereas an efficacy of 100% means that no infection is observed.

[4] = tested on: Altemaria solani; assay: Alternaria test (tomato)/protective; type: in vivo; settings: protective, application rate 750 g/ha, evaluation 7 days after inoculation
Method: as §1
To test for protective activity, young tomato plants are sprayed with the preparation of active compound at the stated application rate. 1 day after the treatment, the plants are inoculated with a spore suspension of Altemaria solani and then remain at 100% rel. humidity and 20° C. for 24 h. The plants then remain at 96% rel. atmospheric humidity and a temperature of 20° C.
Evaluation was carried out 7 days after the inoculation. 0% means an efficacy which corresponds to that of the control, whereas an efficacy of 100% means that no infection is observed.

chromatographic logP [1] | SMILES | also measured
2.59 | Cc1nn(C)c(F)c1C(=O)Nc1ccccc1C=CC1CC1(F)F (centres unmarked) [Example 4, N-{2-[2-(2,2-difluorocyclopropyl)ethenyl]-phenyl}-5-fluoro-1,3-dimethyl-1H-pyrazol-4-carboxamide] | –
– | Cc1nn(C)c(F)c1C(=O)Nc1ccccc1C(C)C(C)C (centres unmarked) [drawing 96] | Efficacy in % [2]: 100%
– | C=C(c1ccccc1NC(=O)c1c(C)nn(C)c1F)C(C)C [drawing 97] | Efficacy in % [3]: 90%
4.2 | Cc1nn(C)c(F)c1C(=O)Nc1ccccc1C(C)CC1CCCCC1 (centres unmarked) [Example I-45] | –
3.85 | CCCCC(CC)c1ccccc1NC(=O)c1c(C)nn(C)c1F (centres unmarked) [Example I-31] | –
3.67 | CCC(C)CC(C)c1ccccc1NC(=O)c1c(C)nn(C)c1F (centres unmarked) [Example I-26] | –
3.01 | CCCC(C)c1ccccc1NC(=O)c1c(C)nn(C)c1F (centres unmarked) [Example I-17] | –
4.01 | Cc1nn(C)c(F)c1C(=O)Nc1ccccc1C(C)(F)CCCCCl (centres unmarked) [Example I-47] | –
3.59 | Cc1nn(C)c(F)c1C(=O)Nc1ccccc1C#CC(C)C [Example I-53] | –
1.92 | C=Cc1ccccc1NC(=O)c1c(C)nn(C)c1F [Example I-20] | –
3.01 | CCC(CC)c1ccccc1NC(=O)c1c(C)nn(C)c1F [Example 2, N-[2-(1-ethylpropyl)phenyl]-5-fluoro-1,3-dimethyl-1H-pyrazol-4-carboxamide] | –
– | Cc1nn(C)c(F)c1C(=O)Nc1ccc(Cl)cc1C(C)C(C)C (centres unmarked) [drawing 100] | Efficacy in % [3]: 100%
3.13 | CCCCCC(C)(O)c1ccccc1NC(=O)c1c(C)nn(C)c1F (centres unmarked) [IV-3] | –
– | CCCC(C)c1ccccc1NC(=O)c1c(C)nn(C)c1F (centres unmarked) [drawing 95] | Efficacy in % [2]: 100%
2.68 | Cc1nn(C)c(F)c1C(=O)Nc1ccccc1C(C)(O)CC(C)C (centres unmarked) [IV-6] | –
3.05 | CCCC(C)c1cc(F)ccc1NC(=O)c1c(C)nn(C)c1F (centres unmarked) [Example I-43] | –
3.43 | Cc1nn(C)c(F)c1C(=O)Nc1ccc(Cl)cc1C(C)C(C)C (centres unmarked) [Example I-19] | –
3.82 | Cc1nn(C)c(F)c1C(=O)Nc1ccccc1C(C)CC1CCCC1 (centres unmarked) [Example I-27] | –
3.28 | CCC(C)C(C)c1ccccc1NC(=O)c1c(C)nn(C)c1F (centres unmarked) [Example I-40] | –
3.32 | Cc1nn(C)c(F)c1C(=O)Nc1ccc(F)cc1C(C)CC(C)C (centres unmarked) [Example I-41] | –
4.36 | CCCC/C=C(\C)c1ccccc1NC(=O)c1c(C)nn(C)c1F [Example 5, 5-fluoro-1,3-dimethyl-N-[2-(1-methyl-1-hexenyl)phenyl]-1H-pyrazol-4-carboxamide] | –

chromatographic logP [1] | SMILES | also measured
3.73 | CCC(CC(C)C)c1ccccc1NC(=O)c1c(C)nn(C)c1F (centres unmarked) [Example I-28] | –
3.47 | Cc1nn(C)c(F)c1C(=O)Nc1ccccc1C(C)(F)CC(C)C (centres unmarked) [Example I-49] | –
2.47 | CCC(O)(CC)c1ccccc1NC(=O)c1c(C)nn(C)c1F [IV-1, N-[2-(1-ethyl-1-hydroxypropyl)phenyl]-5-fluoro-1,3-dimethyl-1H-pyrazol-4-carboxamide] | –
3.44 | CCC(C)C(C)(F)c1ccccc1NC(=O)c1c(C)nn(C)c1F (centres unmarked) [Example I-48] | –
4.22 | Cc1nn(C)c(F)c1C(=O)Nc1ccccc1C(C)CCCC(C)C (centres unmarked) [Example I-34] | –
3.1 | Cc1nn(C)c(F)c1C(=O)Nc1ccccc1C(C)(O)C1CCCCC1 (centres unmarked) [IV-4] | –
2.57 | C=C(C)c1ccccc1NC(=O)c1c(C)nn(C)c1F [Example I-23] | –
– | CCCC(C)c1ccccc1NC(=O)c1c(C)nn(C)c1F (centres unmarked) [drawing 98] | Efficacy in % [3]: 100%
– | Cc1nn(C)c(F)c1C(=O)Nc1ccccc1C(C)CC(C)C (centres unmarked) [drawing 103] | Efficacy in % [4]: 100%
– | Cc1nn(C)c(F)c1C(=O)Nc1ccccc1C(C)C(C)C (centres unmarked) [drawing 102] | Efficacy in % [4]: 95%
3.82 | Cc1nn(C)c(F)c1C(=O)Nc1ccc(Cl)cc1C(C)CC(C)C (centres unmarked) [Example I-25] | –
2.41 | Cc1nn(C)c(F)c1C(=O)Nc1ccccc1C(C)(O)C(C)C (centres unmarked) [IV-5] | –
3.82 | Cc1nn(C)c(F)c1C(=O)Nc1ccccc1C(C)C1CCCCC1 (centres unmarked) [Example I-42] | –
3.09 | Cc1nn(C)c(F)c1C(=O)Nc1ccccc1C(C)(F)C(C)C (centres unmarked) [Example I-46] | –
2.44 | Cc1nn(C)c(F)c1C(=O)Nc1ccccc1I [Example V-1, 5-fluoro-N-(2-iodophenyl)-1,3-dimethyl-1H-pyrazol-4-carboxamide] | –
3.37 | CCC(c1ccccc1NC(=O)c1c(C)nn(C)c1F)C(C)C (centres unmarked) [Example I-38] | –
4.34 | CCC(c1ccccc1NC(=O)c1c(C)nn(C)c1F)C1CCCCC1 (centres unmarked) [Example I-33] | –
4.11 | CCCC(C)CC(C)c1ccccc1NC(=O)c1c(C)nn(C)c1F (centres unmarked) [Example I-35] | –
3.83 | CCCCCC(C)c1ccccc1NC(=O)c1c(C)nn(C)c1F (centres unmarked) [Example I-22] | –
3.37 | C=C(c1ccccc1NC(=O)c1c(C)nn(C)c1F)C(C)C [Example I-10] | –
5.29 | CCCCCCCCC(C)c1ccccc1NC(=O)c1c(C)nn(C)c1F (centres unmarked) [Example I-30] | –

chromatographic logP [1] | SMILES | also measured
4.9 | Cc1nn(C)c(F)c1C(=O)Nc1c(C(C)CC(C)C)cccc1C(C)CC(C)C (centres unmarked) [Example I-54] | –
3.11 | CCC(O)(CC(C)C)c1ccccc1NC(=O)c1c(C)nn(C)c1F (centres unmarked) [IV-13] | –
2.86 | CCCC(C)c1cccc(F)c1NC(=O)c1c(C)nn(C)c1F (centres unmarked) [Example I-50] | –
– | Cc1nn(C)c(F)c1C(=O)Nc1ccccc1C(C)C(C)C (centres unmarked) [drawing 99] | Efficacy in % [3]: 100%
4.49 | CC(C)=CC(C)CCC(C)c1ccccc1NC(=O)c1c(C)nn(C)c1F (centres unmarked) [Example I-37] | –
3.42 | CCCC(CC)c1ccccc1NC(=O)c1c(C)nn(C)c1F (centres unmarked) [Example I-32] | –
3.16 | Cc1nn(C)c(F)c1C(=O)Nc1c(F)cccc1C(C)CC(C)C (centres unmarked) [Example I-44] | –
2.4 | CCCC(C)(O)c1ccccc1NC(=O)c1c(C)nn(C)c1F (centres unmarked) [IV-2] | –
4.36 | C=C(c1ccccc1NC(=O)c1c(C)nn(C)c1F)C1CCCCC1 [Example I-9] | –
4.24 | CCCCC(c1ccccc1NC(=O)c1c(C)nn(C)c1F)C(C)C (centres unmarked) [Example I-39] | –
3.74 | CCC(C)C(CC)c1ccccc1NC(=O)c1c(C)nn(C)c1F (centres unmarked) [Example I-29] | –
4.11 | C=C(c1cc(Cl)ccc1NC(=O)c1c(C)nn(C)c1F)C(C)C [Example I-16] | –
– | CCCC(C)c1ccccc1NC(=O)c1c(C)nn(C)c1F (centres unmarked) [drawing 101] | Efficacy in % [4]: 95%
2.92 | Cc1nn(C)c(F)c1C(=O)Nc1ccccc1C(C)C(C)C (centres unmarked) [Example I-18] | –
2.15 | CC(=O)c1ccccc1NC(=O)c1c(C)nn(C)c1F [VIII-1, N-(2-acetylphenyl)-5-fluoro-1,3-dimethyl-1H-pyrazol-4-carboxamide] | –
2.99 | Cc1nn(C)c(F)c1C(=O)Nc1ccc(Cl)cc1C(C)(O)C(C)C (centres unmarked) [IV-12] | –
3.26 | Cc1nn(C)c(F)c1C(=O)Nc1ccccc1C(C)CC(C)C (centres unmarked) [Example I-21] | –
3.45 | C/C=C(\CC)c1ccccc1NC(=O)c1c(C)nn(C)c1F [Example I-24] | –
5.08 | Cc1nn(C)c(F)c1C(=O)Nc1ccccc1C#CCC1CCCCC1 [Example I-52] | –
3.76 | Cc1nn(C)c(F)c1C(=O)Nc1ccccc1C(C)CCC(C)C (centres unmarked) [Example I-36] | –
